# Results published in US20250235496A1, “USE OF BELLIDIFOLIN (BEL) AND/OR BEL-CONTAINING EXTRACT IN PREPARATION OF ANTIDEPRESSANT PRODUCT” (priority 2024, published 2025).
# Experiment: Mass spectrometry imaging of mouse brain
# Type: in vivo, mice
# Details: 10, 20 and 40 mg/kg, 21 d
structure (smiles),measurement,value
"COc1cc(O)c2c(=O)c3c(O)ccc(O)c3oc2c1 [BEL, bellidifolin]","BEL signal in brain (mass spectrometry imaging), passage of BBB",BEL signals were detected
